Here are results for eleven compounds from paper PMC8776063, “Aurora Kinase A Is Involved in Controlling the Localization of Aquaporin-2 in Renal Principal Cells” (International Journal of Molecular Sciences, 2022).

Where two headings read alike, the source gives them in different places.

One data set has as its target T1, STK3 (Homo sapiens, UniProt Q13188).
T1 construct: purchased in-house thermal shift (DSF) kinase panel (SGC Frankfurt); Promega NanoBRET for AURKA/B/C
T1 sequence (Q13188 16-313): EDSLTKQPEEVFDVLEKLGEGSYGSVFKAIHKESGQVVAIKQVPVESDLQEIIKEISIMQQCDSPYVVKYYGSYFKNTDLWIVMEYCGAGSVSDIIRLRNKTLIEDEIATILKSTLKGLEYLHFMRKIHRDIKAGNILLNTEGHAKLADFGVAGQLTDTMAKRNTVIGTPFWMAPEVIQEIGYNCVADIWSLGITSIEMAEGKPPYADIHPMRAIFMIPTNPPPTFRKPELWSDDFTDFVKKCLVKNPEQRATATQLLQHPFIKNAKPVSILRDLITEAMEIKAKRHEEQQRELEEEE
As to the kind of experiment: Thermal shift assay. The class given is binding. As to conditions: read-out: ΔTm STK3.

For the next data set, the target named is T2, STK17A (Homo sapiens, UniProt Q9UEE5).
T2 construct: purchased in-house thermal shift (DSF) kinase panel (SGC Frankfurt); Promega NanoBRET for AURKA/B/C
T2 sequence (Q9UEE5 61-321): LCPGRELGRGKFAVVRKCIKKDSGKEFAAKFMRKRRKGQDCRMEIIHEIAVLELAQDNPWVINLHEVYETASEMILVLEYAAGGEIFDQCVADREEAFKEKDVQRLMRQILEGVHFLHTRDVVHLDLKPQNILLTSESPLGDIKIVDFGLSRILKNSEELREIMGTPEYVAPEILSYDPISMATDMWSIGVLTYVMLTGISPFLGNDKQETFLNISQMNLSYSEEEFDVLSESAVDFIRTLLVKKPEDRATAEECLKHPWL
Put plainly: Thermal shift assay. The note with it: read-out: ΔTm STK17A. The class given is binding.

A further data set has as its target T3, CAMKK2 (Homo sapiens, UniProt Q96RR4).
T3 construct: purchased in-house thermal shift (DSF) kinase panel (SGC Frankfurt); Promega NanoBRET for AURKA/B/C
Put plainly: Thermal shift assay. The class given is binding. The note with it: read-out: ΔTm CAMKK2.

The next data set deals with T4, STK39 (Homo sapiens, UniProt Q9UEW8).
T4 construct: purchased in-house thermal shift (DSF) kinase panel (SGC Frankfurt); Promega NanoBRET for AURKA/B/C
Put plainly: Thermal shift assay. Type of data set: binding. The note with it: read-out: ΔTm STK39.

Data set [1] relates to MCD4 cells. As to the kind of experiment: AQP2 redistribution, immunofluorescence microscopy. The note with it: compound 30 µM, 1 h (Aurora-A inhibitor I 1-30 µM), forskolin 30 µM, 30 min.
The next data set has as its target T5, AURKA (Homo sapiens, UniProt O14965).
T5 construct: full-length wild-type AURKA, AURKB, and AURKC were obtained as plasmids cloned in frame with a C-terminal NanoLuc-fusion; host or cells: HEK293T
T5 sequence (O14965 1-403): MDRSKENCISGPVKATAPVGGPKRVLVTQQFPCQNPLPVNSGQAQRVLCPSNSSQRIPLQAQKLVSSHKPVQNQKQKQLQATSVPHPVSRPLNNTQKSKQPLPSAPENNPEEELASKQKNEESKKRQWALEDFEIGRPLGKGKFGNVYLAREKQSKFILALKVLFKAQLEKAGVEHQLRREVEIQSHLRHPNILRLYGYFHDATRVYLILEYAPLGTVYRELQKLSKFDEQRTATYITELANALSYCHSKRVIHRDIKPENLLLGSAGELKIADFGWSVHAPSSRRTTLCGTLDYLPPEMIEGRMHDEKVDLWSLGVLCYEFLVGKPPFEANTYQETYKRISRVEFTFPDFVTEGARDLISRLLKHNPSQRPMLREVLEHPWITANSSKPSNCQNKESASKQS
Put plainly: NanoBRET assay in HEK293T cells. As to conditions: NanoBRET. The class given is cell-based. For orientation: In BRET a luciferase serves as donor, and the signal depends on an acceptor being close.

Data set [2] has as its system MCD4 cells. Put plainly: MTS assay (cell viability). Type of data set: cell-based, mouse. The note with it: 30 µM, 10 µM or 1 µM, 1 h; compared to untreated cells. Background: Tetrazolium assays rely on reduction of a dye to a coloured formazan, in cell work by metabolically active cells.
The target in another data set is T6, AURKC (Homo sapiens, UniProt Q9UQB9).
T6 construct: full-length wild-type AURKA, AURKB, and AURKC were obtained as plasmids cloned in frame with a C-terminal NanoLuc-fusion; host or cells: HEK293T
T6 sequence (Q9UQB9 1-309): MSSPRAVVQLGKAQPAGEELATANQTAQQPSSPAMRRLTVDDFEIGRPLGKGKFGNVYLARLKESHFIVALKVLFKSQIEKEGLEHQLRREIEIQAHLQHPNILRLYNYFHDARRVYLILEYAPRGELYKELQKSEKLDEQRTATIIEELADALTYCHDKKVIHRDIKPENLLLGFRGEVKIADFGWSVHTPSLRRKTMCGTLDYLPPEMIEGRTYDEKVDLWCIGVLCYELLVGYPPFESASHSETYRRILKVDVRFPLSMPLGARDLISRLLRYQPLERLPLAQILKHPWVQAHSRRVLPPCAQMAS
Put plainly: NanoBRET assay in HEK293T cells. The class given is cell-based. As to conditions: NanoBRET, Figure 6B, read-out: affinity to intracellular AURKC.

A further data set addresses AURKB (Homo sapiens, UniProt Q96GD4). As to the kind of experiment: NanoBRET assay in HEK293T cells. Type of data set: cell-based. Set-up: full-length wild-type AURKA, AURKB, and AURKC were obtained as plasmids cloned in frame with a C-terminal NanoLuc-fusion; host or cells: HEK293T. The note with it: NanoBRET.
In data set [3] the test system is complex of AURKA and TPX2. Set-up: method as in PMID 26732741. The note with it: cited from earlier work.
Data set [4] has as its system primary IMCD cells. As to the kind of experiment: AQP2 redistribution, immunofluorescence microscopy. The note with it: compound 20 µM, 1 h (Aurora-A inhibitor I 1-30 µM), AVP 100 nM, 30 min.
In data set [5] the test system is CFL1 phosphorylation in MCD4 cells. Put plainly: CFL1 phosphorylation, Western blotting. The class given is cell-based, mouse. As to conditions: compound 30 µM, 1 h. A general note: In western blotting, separated proteins are transferred to a membrane and probed.
A further data set deals with M12 cells. Set-up: method as in PMID 25090971. As to conditions: cited from earlier work.
Data set [6] has as its system primary IMCD cells. Put plainly: F-actin stress fiber staining (phalloidin). The note with it: compound 20 µM, 1 h. Type of data set: cell-based, rat.
In data set [7] the test system is MCD4 cells. As to the kind of experiment: F-actin stress fiber staining (phalloidin). The note with it: compound 30 µM, 1 h. The class given is cell-based, mouse.
Setting [8] is: HEK293T cells overexpressing the kinase, Table 2, read-out: AURKA IC50.
The mark [9] stands for this setting: HEK293T cells overexpressing the kinase, Table 2, read-out: AURKB IC50.
[10] abbreviates: n = 2, mean, Figure 6B, read-out: affinity to intracellular AURKA.

In general, ΔTm refers to the change in melting temperature against a reference sample.

Sequence of AURKB (Q96GD4 whole entry, the tested form may be a part): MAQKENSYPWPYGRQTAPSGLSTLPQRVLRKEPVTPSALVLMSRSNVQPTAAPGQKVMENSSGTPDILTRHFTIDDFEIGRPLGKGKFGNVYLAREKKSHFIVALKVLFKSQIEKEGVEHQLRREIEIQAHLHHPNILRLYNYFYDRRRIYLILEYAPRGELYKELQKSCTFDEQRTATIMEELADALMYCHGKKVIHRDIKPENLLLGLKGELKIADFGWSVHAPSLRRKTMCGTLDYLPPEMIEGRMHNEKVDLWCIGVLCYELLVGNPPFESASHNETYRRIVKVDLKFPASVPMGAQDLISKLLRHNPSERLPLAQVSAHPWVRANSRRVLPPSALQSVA
T3 sequence (Q96RR4 161-449): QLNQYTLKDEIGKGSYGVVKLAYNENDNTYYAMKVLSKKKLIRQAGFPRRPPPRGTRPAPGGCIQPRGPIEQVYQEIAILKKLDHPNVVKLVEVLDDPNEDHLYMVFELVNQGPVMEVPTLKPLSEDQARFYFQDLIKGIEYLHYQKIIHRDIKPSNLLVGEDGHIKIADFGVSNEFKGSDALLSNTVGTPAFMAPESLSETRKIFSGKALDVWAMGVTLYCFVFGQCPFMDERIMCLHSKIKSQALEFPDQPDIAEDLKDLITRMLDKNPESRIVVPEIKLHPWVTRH

For the compound `CN[C@@H]1C[C@H]2O[C@@](C)([C@@H]1OC)n1c3ccccc3c3c4c(c5c6ccccc6n2c5c31)C(=O)NC4` [Staurosporine, reference compound], the thermal shift (ΔTm) at 10 µM on STK3 was 13.7 °C; on STK17A it was 12.9 °C; on CAMKK2, 24.2 °C; on STK39 it was 9.9 °C.
Consider `O=C(Nc1ccccc1Cl)c1ccc(Nc2nc(Nc3ccc(CC(=O)N4CCOCC4)cc3)ncc2F)cc1` [ERJ2-03], for which the “inhibition of the forskolin-induced redistribution of AQP2 to the plasma membrane” value in the data set on MCD4 cells [1] is “not being an inhibitor”. The IC50 at AURKA (setting [8]) was 1.08 µM; at AURKC (n = 2, bounds) it was > 50 µM; on AURKB (setting [9]) it was > 50 µM. Also, in the data set with MCD4 cells [2], the “viability of MCD4 cells” value is given as “reduced by 10 or 30 µM”.
On to `CCN1CCN(C(=O)Cc2ccc(Nc3ncc(F)c(Nc4ccc(C(=O)N5CCN(CC)CC5)cc4)n3)cc2)CC1` [ERJ2-13], for which the IC50 on AURKA (setting [8]) is 37.3 µM; on AURKC (n = 2, bounds) it was > 50 µM; at AURKB (setting [9]), > 50 µM.
Take `O=C(O)Cc1ccc(Nc2ncc(F)c(Nc3ccc(C(=O)Nc4ccccc4)cc3)n2)cc1` [ERJ2-10]: the IC50 is 22.8 µM at AURKA (setting [8]); > 50 µM at AURKC (n = 2, bounds); > 50 µM at AURKB (setting [9]).
`COc1cc(Nc2ncc3c(n2)-c2ccc(Cl)cc2C(c2c(F)cccc2OC)=NC3)ccc1C(=O)O` [Alisertib, reference compound]: in data set [3], the “decrease of affinity for AURKA in the presence of TPX2” value is on record as 5.8 fold. Moreover, in the data set with MCD4 cells [1], the “inhibition of the forskolin-induced redistribution of AQP2 to the plasma membrane” value is on record as “significantly inhibited”. The “inhibition of the AVP-induced redistribution of AQP2 to the plasma membrane” value in the data set on primary IMCD cells [4] is “significantly inhibited”. Moreover, in [5] (no forskolin), the “CFL1 phosphorylation in resting cells” value is “not reduced”. Besides, in the data set on M12 cells, the “phosphorylation of CFL1” value was “increased”. Besides, the “effect on actin stress fibers” value in the data set with primary IMCD cells [6] and with MCD4 cells [7] was “promoted or maintained the formation of actin stress fibers” in each case.
Turning to `O=C(Cc1ccc(Nc2ncc(F)c(Nc3ccc(C(=O)Nc4ccccc4Cl)cc3)n2)cc1)NCCO` [ERJ2-08], the IC50 was found to be 0.237 µM on AURKA (setting [8]); 17 µM at AURKC (n = 2, mean); 16.1 µM at AURKB (setting [9]). The “viability of MCD4 cells” value in the data set with MCD4 cells [2] is given as “partly increased”.
With `O=C(O)c1ccc(Nc2ncc(F)c(Nc3ccc(C(=O)O)cc3)n2)cc1` [ERJ2-09], the IC50 on AURKB (setting [9]) was > 50 µM.
Turning to `CCN(CCO)CCCOc1ccc2c(Nc3cc(CC(=O)Nc4cccc(F)c4)n[nH]3)ncnc2c1` [Barasertib-HQPA, reference compound], the “inhibition of the forskolin-induced redistribution of AQP2 to the plasma membrane” value in the data set on MCD4 cells [1] was “did not”. Moreover, the “inhibition of the AVP-induced redistribution of AQP2 to the plasma membrane” value in the data set with primary IMCD cells [4] was “No inhibitory effect”. For the same compound, the CFL1 phosphorylation entry in [5] (absence and presence of forskolin) was “no effect”. For the same compound, the “effect on actin stress fibers” value with primary IMCD cells [6] and with MCD4 cells [7] was “resembled those of the control cells” each time.
Turning to `CCN1CCN(C(=O)Cc2ccc(Nc3ncc(F)c(Nc4ccc(C(=O)NCCN5CCCC5)cc4)n3)cc2)CC1` [ERJ2-16], the IC50 was > 50 µM on AURKA (setting [8]); > 50 µM on AURKC (n = 2, bounds); > 50 µM at AURKB (setting [9]).
For the compound `COCCNC(=O)Cc1ccc(Nc2ncc(F)c(Nc3ccc(C(=O)Nc4ccccc4Cl)cc3)n2)cc1` [ERJ2-05], the IC50 was determined as 0.24 µM at AURKA (setting [10]); 12.9 µM at AURKC (n = 2, mean); 16.8 µM at AURKB (n = 2, mean, Figure 6B, read-out: affinity to intracellular AURKB). Besides, the “viability of MCD4 cells” value with MCD4 cells [2] is on record as “partly increased”.
`O=C(O)Cc1ccc(Nc2ncc(F)c(Nc3ccc(C(=O)Nc4ccccc4Cl)cc3)n2)cc1` [ERJ2-02]: the IC50 was 1.33 µM on AURKA (setting [10]); > 50 µM on AURKC (n = 2, bounds); > 50 µM at AURKB (setting [9]).
